Data on 21 molecules can be found in patent US12552793B2, “Purine derivative and medical use thereof” (KANGBAIDA (SICHUAN) BIOTECHNOLOGY CO., LTD., priority 2019, dated 2026).

This assay deals with DNA-PK kinase (Homo sapiens (Human), UniProt P78527).
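Note: enzyme inhibition of DNA-PK with kinase activity read out by chemiluminescence on a microplate reader after adding a kinase detection reagent.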

Protocol: Inhibition of DNA-PK Kinase
The inhibitory activity of the compounds against DNA-PK kinase was determined using a DNA-PK kinase assay kit (purchased from Promega, Cat. No. V4107, Batch No. 0000366495). The results were quantified using chemiluminescence, specifically as follows: • i. ADP-fluorescence standard curves at different concentrations were constructed according to the instructions of the kit; • ii. reaction systems (5 L) were prepared in a 384-well white plate; 1 μL of a compound (concentration gradients 1 μM, 200 nM, 40 nM, 8 nM, 1.6 nM, 0.32 nM, 0.064 nM and 0.013 nM were set for each compound), 20 units of DNA-PK kinase, 0.2 μg/μL substrate, 10 μg/μL DNA, 50 μM ATP and 1% DMSO were successively added to each well; • iii. the mixtures were well mixed, centrifuged (1000 rpm, 30 s), and incubated at 37° C. for 60 min; • iv. the reactions were terminated by adding 5 μL of ADP-Glo™ Reagent; the mixtures were well mixed, centrifuged (1000 rpm, 30 s), and incubated at room temperature for 40 min; • v. 10 μL of Kinase Detection Reagent was added; the mixtures were well mixed by shaking, centrifuged (1000 rpm, 30 s), and incubated at room temperature for 30 min; • vi. fluorescence values were measured using a microplate reader (Thermo fisher, Varioskan LUX). IC50 was calculated using GraphPad Prism 8.

One may read the IC50 as the point on the concentration scale where inhibition reaches its midpoint. Read a high IC50 as weaker potency. `Cc1cc(C(N)=O)c(F)cc1Nc1ncc2c(n1)n(C1C3CC4CC1CC(O)(C4)C3)c(=O)n2C` (single isomer, unassigned) [2-Fluoro-4-((9-(5-hydroxyadamantan-2-yl)-7-methyl-8-oxo-8,9-dihydro-7H-purin-2-yl)amino)-5-methylbenzamide] displayed an IC50 of 0.48 nM.

In the case of `Cc1cc(C#N)ccc1Nc1ncc2c(n1)n(C1C3CC4CC1CC(O)(C4)C3)c(=O)n2C` (single isomer, unassigned) [Compound 13-1, 4-((9-(5-Hydroxyadamantan-2-yl)-7-methyl-8-oxo-8,9-dihydro-7H-purin-2-yl)amino)-3-methylbenzonitrile], the IC50 amounted to 0.68 nM.

Turning to `Cc1cc(C#N)ccc1Nc1ncc2c(n1)n(C1C3CC4CC1CC(O)(C4)C3)c(=O)n2C` (single isomer, unassigned) [Compound 13-2, 4-((9-(5-Hydroxyadamantan-2-yl)-7-methyl-8-oxo-8,9-dihydro-7H-purin-2-yl)amino)-3-methylbenzonitrile], the IC50 is 51.9 nM.

Molecule `Cc1cc2ncnn2cc1Nc1ncc2c(n1)n(C13CC4CC(C1)C(C#N)C(C4)C3)c(=O)n2C` (single isomer, unassigned) [Compound 21-1, 5-(7-Methyl-2-((7-methyl-[1,2,4]triazolo[1,5-a]pyridin-6-yl)amino)-8-oxo-7,8-dihydro-9H-purin-9-yl)adamantane-2-carbonitrile] displayed an IC50 of 0.01 nM.

Turning to `Cc1cc2ncnn2cc1Nc1ncc2c(n1)n(C13CC4CC(C1)C(C#N)C(C4)C3)c(=O)n2C` (single isomer, unassigned) [Compound 21-2, 5-(7-Methyl-2-((7-methyl-[1,2,4]triazolo[1,5-a]pyridin-6-yl)amino)-8-oxo-7,8-dihydro-9H-purin-9-yl)adamantane-2-carbonitrile], the IC50 amounted to 0.1 nM.

`Cc1cc(C(N)=O)c(F)cc1Nc1ncc2c(n1)n(C13CC4CC(C1)C(C#N)C(C4)C3)c(=O)n2C` (single isomer, unassigned) [Compound 24-1, 4-((9-(4-Cyanoadamantan-1-yl)-7-methyl-8-oxo-8,9-dihydro-7H-purin-2-yl)amino)-2-fluoro-5-methylbenzamide]: the IC50 amounted to 0.66 nM.

In turn, `Cc1cc(C(N)=O)c(F)cc1Nc1ncc2c(n1)n(C13CC4CC(C1)C(C#N)C(C4)C3)c(=O)n2C` (single isomer, unassigned) [Compound 24-2, 4-((9-(4-Cyanoadamantan-1-yl)-7-methyl-8-oxo-8,9-dihydro-7H-purin-2-yl)amino)-2-fluoro-5-methylbenzamide] gave an IC50 of 8.39 nM.

Turning to `Cc1cc(C(N)=O)c(F)cc1Nc1ncc2c(n1)n(C1C3CC4CC1CC(O)(C4)C3)c(=O)n2C` (single isomer, unassigned) [Compound 27-1, 2-Fluoro-4-((9-(5-hydroxyadamantan-2-yl)-7-methyl-8-oxo-8,9-dihydro-7H-purin-2-yl)amino)-5-methylbenzamide], half-maximal inhibition (IC50) required 10.5 nM.

Take `Cc1cc2ncnn2cc1Nc1ncc2c(n1)n(C1C3CC4CC1CC(C#N)(C4)C3)c(=O)n2C` (single isomer, unassigned) [Compound 28-1, 4-(7-Methyl-2-((7-methyl-[1,2,4]triazolo[1,5-a]pyridin-6-yl)amino)-8-oxo-7,8-dihydro-9H-purin-9-yl)adamantane-1-carbonitrile]: 0.75 nM corresponded to half-maximal inhibition (IC50).

In the case of `Cc1cc2ncnn2cc1Nc1ncc2c(n1)n(C1C3CC4CC1CC(C#N)(C4)C3)c(=O)n2C` (single isomer, unassigned) [Compound 28-2, 4-(7-Methyl-2-((7-methyl-[1,2,4]triazolo[1,5-a]pyridin-6-yl)amino)-8-oxo-7,8-dihydro-9H-purin-9-yl)adamantane-1-carbonitrile], the IC50 worked out at 0.1 nM.

On to `Cc1cc2ncccc2cc1Nc1ncc2c(n1)n(C13CC4CC(CC(O)(C4)C1)C3)c(=O)n2C` [Compound 2, 9-(3-Hydroxyadamantan-1-yl)-7-methyl-2-((7-methylquinolin-6-yl)amino)-7,9-dihydro-8H-purin-8-one], for which 0.01 nM corresponded to half-maximal inhibition (IC50).

In the case of `Cc1cc2ncnn2cc1Nc1ncc2c(n1)n(C13CC4CC(CC(C(=O)OC(C)(C)C)(C4)C1)C3)c(=O)n2C` [Compound 3, tert-Butyl-3-(7-methyl-2-[(7-methyl-[1,2,4]triazolo[1,5-a]pyridin-6-yl)amino]-8-oxo-8,9-dihydro-7H-purin-9-yl)adamantane-1-carboxylate], it took 14.9 nM to reach half-maximal inhibition (IC50).

`Cc1cc2ncnn2cc1Nc1ncc2c(n1)n(C13CC4CC(CC(C(=O)O)(C4)C1)C3)c(=O)n2C` [Compound 4, 3-(7-Methyl-2-((7-methyl-[1,2,4]triazolo[1,5-a]pyridin-6-yl)amino)-8-oxo-7,8-dihydro-9H-purin-9-yl)adamantane-1-carboxylic acid] displayed an IC50 of 0.45 nM.

Molecule `Cc1cc2ncnn2cc1Nc1ncc2c(n1)n(C13CC4CC(CC(C(N)=O)(C4)C1)C3)c(=O)n2C` [Compound 5, 3-(7-Methyl-2-[(7-methyl-[1,2,4]triazolo[1,5-a]pyridin-6-yl)amino]-8-oxo-8,9-dihydro-7H-purin-9-yl)adamantane-1-carboxamide] came in with an IC50 of 3.87 nM.

For `CCOC(=O)C12CC3CC(C1)CC(n1c(=O)n(C)c4cnc(Nc5cn6ncnc6cc5C)nc41)(C3)C2` [Compound 7, Ethyl-3-(7-methyl-2-[(7-methyl-[1,2,4]triazolo[1,5-a]pyridin-6-yl)amino]-8-oxo-8,9-dihydro-7H-purin-9-yl)adamantane-1-carboxylate], the concentration for half-maximal inhibition (IC50) was found to be 0.01 nM.

Take `Cc1cc2ncnn2cc1Nc1ncc2c(n1)n(C13CC4CC(CC(CO)(C4)C1)C3)c(=O)n2C` [Compound 8, 7-Methyl-2-[(7-methyl-[1,2,4]triazolo[1,5-a]pyridin-6-yl)amino]-9-[3-(hydroxymethyl)adamantan-1-yl]-8,9-dihydro-7H-purin-8-one]: the half-maximal inhibitory concentration (IC50) was 0.01 nM.

In turn, `Cc1cc2ncnn2cc1Nc1ncc2c(n1)n(C13CC4CC(CC(C(=O)N5CCOCC5)(C4)C1)C3)c(=O)n2C` [Compound 9, 7-Methyl-2-[(7-methyl-[1,2,4]triazolo[1,5-a]pyridin-6-yl)amino]-9-[3-(morpholine-4-carbonyl)adamantan-1-yl]-8,9-dihydro-7H-purin-8-one] had a concentration for half-maximal inhibition (IC50) of 1.1 nM.

The molecule `Cc1cc2ncnn2cc1Nc1ncc2c(n1)n(C13CC4CC(CC(N)(C4)C1)C3)c(=O)n2C` [Compound 10, 7-Methyl-2-[(7-methyl-[1,2,4]triazolo[1,5-a]pyridin-6-yl)amino]-9-[3-aminoadamantan-1-yl]-8,9-dihydro-7H-purin-8-one] registered an IC50 of 2.26 nM.

Turning to `COC12CC3CC(C1)CC(n1c(=O)n(C)c4cnc(Nc5cn6ncnc6cc5C)nc41)(C3)C2` [Compound 11, 9-(3-Methoxyadamantan-1-yl)-7-methyl-2-((7-methyl-[1,2,4]triazolo[1,5-a]pyridin-6-yl)amino)-7,9-dihydro-8H-purin-8-one], the IC50 was 0.1 nM.

For `Cc1cc2ncnn2cc1Nc1ncc2c(n1)n(C13CC4CC(C1)C(=O)C(C4)C3)c(=O)n2C` [Compound 19, 7-Methyl-2-((7-methyl-[1,2,4]triazolo[1,5-a]pyridin-6-yl)amino)-9-(4-oxoadamantan-1-yl)-7,9-dihydro-8H-purin-8-one], the IC50 was found to be 0.03 nM.

In the case of `Cc1cc(C(N)=O)c(F)cc1Nc1ncc2c(n1)n(C13CC4CC(CC(O)(C4)C1)C3)c(=O)n2C` [Compound 22, 2-Fluoro-4-((9-(3-hydroxyadamantan-1-yl)-7-methyl-8-oxo-8,9-dihydro-7H-purin-2-yl)amino)-5-methylbenzamide], the IC50 was 0.01 nM.
